Source: US20120010290A1, “Methods of Treating an Overweight or Obese Subject” (priority 2008, published 2012)

Tested on: diet-induced obese C57BL/6NTac mice
Experiment: Weight loss study in diet-induced obese mice
Assay type: in vivo
Settings: oral 1.0 mg/kg in 10% gelucire in deionised water, once a day for 7 days; C57BL/6NTac mice on 60% fat diet; after 7 days
Procedure: A weight loss study was conducted in obese mice. The mice in this study were not genetically obese, but prior to and during the study, obesity was induced by a high-fat diet. Twelve week-old C57BL/6NTac mice, maintained on a 60% fat diet prior to and during the study, were separated into two groups, with eight animals per group. Average body weight of the mice was approximately 47 g at the start of the study.
One group was orally administered 1.0 mg/kg of compound H in 10% gelucire in deionised water, and one group was administered 10% gelucire in deionised water (vehicle). Compound H is as follows:
Mice received administrations once a day for 7 days. After 7 days, the average weight loss of mice administered compound H was 13.2%.

CCN(CC)C/C=C\c1ccccc1S(=O)(=O)Nc1ccc2c(c1C(=O)O)CCCC2 [compound H]
average weight loss: 13.2%
